Source: patent publication US8293979B2, “Weed controller metabolism proteins, genes, thereof and use of the same” (Sumitomo Chemical Company, Limited, priority 2001, dated 2012)

Legend:
[1] = test system: present invention protein (A25); assay: Metabolism of compounds by the present invention protein (A25), reaction solution, HPLC; format: in vitro ADME, Streptomyces steffisburgensis IFO 13446T; conditions: 12.5 ppm of compound, components A, B, C, 20 μl supernatant fraction of Example 67(2), 30° C. for 10 minutes
[2] = test system: present invention protein (A2); assay: Metabolism of compounds by the present invention protein (A2), reaction solution, HPLC; format: in vitro ADME, Saccharopolyspora taberi JCM 9383t; conditions: 5 ppm of compound, components A, B, C, 20 μl supernatant fraction of Example 7(2), 30° C. for 10 minutes
[3] = test system: present invention protein (A17); assay: Metabolism of compounds by the present invention protein (A17), reaction solution, HPLC; format: in vitro ADME, Streptomyces griseus ATCC 10137; conditions: 12.5 ppm of compound, components A, B, C, 20 μl supernatant fraction of Example 51(2), 30° C. for 10 minutes
[4] = test system: present invention protein (A13); assay: Metabolism of compounds by the present invention protein (A13), reaction solution, HPLC; format: in vitro ADME, Streptomyces thermocoerulesces IFO 14273t; conditions: 5 ppm of compound, components A, B, C, 20 μl supernatant fraction of Example 36(2), 30° C. for 10 minutes
[5] = test system: present invention protein (A23); assay: Metabolism of compounds by the present invention protein (A23), reaction solution, HPLC; format: in vitro ADME, Streptomyces roseorubens IFO 13682T; conditions: 12.5 ppm of compound, components A, B, C, 20 μl supernatant fraction of Example 63(2), 30° C. for 10 minutes
[6] = test system: present invention protein (A11); assay: Metabolism of compounds by the present invention protein (A11), reaction solution, HPLC; format: in vitro ADME, Streptomyces nogalator IFO13445; conditions: 5 ppm of compound, components A, B, C, 20 μl supernatant fraction of Example 32(2), 30° C. for 10 minutes
Method: There was prepared 100 μl of a reaction solution of 50 mM potassium phosphate buffer (pH7.0) containing 5 ppm of compound (XII), 3 mM of […] (hereinafter, referred to as “component A”) (Oriental Yeast Company), 1 mg/ml of a ferredoxin derived from spinach (hereinafter referred to as “component B”) (Sigma Company), 0.15 U/ml of ferredoxin reductase (hereinafter, referred to as “component C”) (Sigma Company) and 20 μl of the supernatant fraction recovered in Example 4(2). The reaction solution was maintained at 30° C. for 10 minutes. Further, there was prepared and maintained similarly 100 μl of a reaction solution of a 50 mM potassium phosphate buffer (pH 7.0) having no addition of at least one component utilized in the composition of the above reaction solution, selected from component A, component B, component C and the supernatant fraction prepared in Example 4(2). Ten microliters (10 μl) of 2N HCl and 500 μl of ethyl acetate were added and mixed into each of the reaction solutions after the maintenance. The resulting reaction solutions were centrifuged at 8,000×g to recover 490 μl of the ethyl acetate layer. After drying the ethyl acetate layers under reduced pressure, the residue was dissolved in 100 μl of 50 mM of potassium phosphate buffer (pH7.0). Forty microliters (40 μl) of the fraction solutions (hereinafter, the fraction solution derived from the reaction solution containing component A, component B, component C and 20 μl of supernatant fraction recovered in Example 4(2) is referred to as “(XII) metabolism solution (A1);” further, the fraction solution derived from the reaction solution containing no component A, no component B, no component C and no supernatant fraction recovered in Example 4(2) is referred to as “(XII) control solution (A1)”) were analyzed on a HPLC. Compared to the concentration of compound (XII) detected from (XII) control solution (A1), the concentration of compound (XII) detected from (XII) metabolism solution (A1) was lower. Further a peak, which was not detected from the (XII) control solution (A1), was detected from the (XII) metabolism solution (A1). Mass spectrometry was conducted for the compound contained in such a peak. […]
Other than utilizing 20 μl of the supernatant fraction recovered in Example 32(2) instead of 20 μl of the supernatant fraction recovered in Example 4(2), the reaction solutions were prepared and maintained in accordance with the method described in Example 41(2). […] Compared to the concentration of compound (XII) detected from (XII) control solution (A11), the concentration of compound (XII) detected from (XII) metabolism solution (A11) was lower. Further a peak, which was not detected from the (XII) control solution (A11), was detected from the (XII) metabolism solution (A11). […]

[7] = test system: present invention protein (A18); assay: Metabolism of compounds by the present invention protein (A18), reaction solution, HPLC; format: in vitro ADME, Streptomyces achromogenes IFO 12735; conditions: 12.5 ppm of compound, components A, B, C, 20 μl supernatant fraction of Example 53(2), 30° C. for 10 minutes
[8] = test system: present invention protein (A12); assay: Metabolism of compounds by the present invention protein (A12), reaction solution, HPLC; format: in vitro ADME, Streptomyces tsusimaensis IFO 13782; conditions: 5 ppm of compound, components A, B, C, 20 μl supernatant fraction of Example 34(2), 30° C. for 10 minutes
present protein (A10) = biological target: T1, present protein (A10) (Streptomyces griseolus, UniProt P18326); format: in vitro ADME, Streptomyces griseolus ATCC 11796; conditions: 5 ppm of compound, components A, B, C, 20 μl supernatant fraction of Example 10(2), 30° C. for 10 minutes, HPLC
T1 construct: made in house; host or cells: E. coli JM109 carrying pKSN11796 or pKSN11796F; 150,000 x g supernatant (crude extract)
T1 sequence (P18326 whole entry H308Q): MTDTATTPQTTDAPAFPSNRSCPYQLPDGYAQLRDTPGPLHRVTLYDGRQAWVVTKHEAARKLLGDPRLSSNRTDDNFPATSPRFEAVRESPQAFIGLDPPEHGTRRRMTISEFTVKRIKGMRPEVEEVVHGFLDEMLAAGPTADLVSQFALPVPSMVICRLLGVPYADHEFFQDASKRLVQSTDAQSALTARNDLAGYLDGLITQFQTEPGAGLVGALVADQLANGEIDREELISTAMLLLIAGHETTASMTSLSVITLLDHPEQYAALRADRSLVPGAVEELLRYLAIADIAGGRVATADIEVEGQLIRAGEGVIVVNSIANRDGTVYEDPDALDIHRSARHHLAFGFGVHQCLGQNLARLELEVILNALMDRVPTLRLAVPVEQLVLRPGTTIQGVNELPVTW

Cn1c(C(F)(F)F)cc(=O)n(-c2cc(Oc3cccnc3OCC(=O)O)c(Cl)cc2F)c1=O [compound (XII)]
lower: concentration of the compound detected from metabolism solution (A25) compared to control solution (A25) [1] | concentration of the compound detected from metabolism solution (A2) compared to control solution (A2) [2] | concentration of the compound detected from metabolism solution (A17) compared to control solution (A17) [3] | concentration of the compound detected from metabolism solution (A13) compared to control solution (A13) [4] | concentration of the compound detected from metabolism solution (A23) compared to control solution (A23) [5] | concentration of the compound detected from metabolism solution (A11) compared to control solution (A11) [6] | concentration of the compound detected from metabolism solution (A18) compared to control solution (A18) [7] | concentration of the compound detected from metabolism solution (A12) compared to control solution (A12) [8] | concentration of the compound detected from metabolism solution (A10) compared to control solution (A10) (present protein (A10))

Cn1c(C(F)(F)F)cc(=O)n(-c2cc(Oc3ccccc3OCC(=O)O)c(Cl)cc2F)c1=O [compound (XIII)]
lower: concentration of the compound detected from metabolism solution (A25) compared to control solution (A25) [1] | concentration of the compound detected from metabolism solution (A2) compared to control solution (A2) [2] | concentration of the compound detected from metabolism solution (A17) compared to control solution (A17) [3] | concentration of the compound detected from metabolism solution (A13) compared to control solution (A13) [4] | concentration of the compound detected from metabolism solution (A23) compared to control solution (A23) [5] | concentration of the compound detected from metabolism solution (A11) compared to control solution (A11) [6] | concentration of the compound detected from metabolism solution (A18) compared to control solution (A18) [7] | concentration of the compound detected from metabolism solution (A12) compared to control solution (A12) [8] | concentration of the compound detected from metabolism solution (A10) compared to control solution (A10) (present protein (A10))
